Key:
Aurora A kinase = molecular target: T1, Aurora A kinase (Homo sapiens, UniProt O14965); test: Kinase assay; type: biochemical
T1 construct: purchased Promega (ADP-Glo kits) or Reaction Biology Corporation / Eurofins discovery services (external)
T1 sequence (O14965 1-403): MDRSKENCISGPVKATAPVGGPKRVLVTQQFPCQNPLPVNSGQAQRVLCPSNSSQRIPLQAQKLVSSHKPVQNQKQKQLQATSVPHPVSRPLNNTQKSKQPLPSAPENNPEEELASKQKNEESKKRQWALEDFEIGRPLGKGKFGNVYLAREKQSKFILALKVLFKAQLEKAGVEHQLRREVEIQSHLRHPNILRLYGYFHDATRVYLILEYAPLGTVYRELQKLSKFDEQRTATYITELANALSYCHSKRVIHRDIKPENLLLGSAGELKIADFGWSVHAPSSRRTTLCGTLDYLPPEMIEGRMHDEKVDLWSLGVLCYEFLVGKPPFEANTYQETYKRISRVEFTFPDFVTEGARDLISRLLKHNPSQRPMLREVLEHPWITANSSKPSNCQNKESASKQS
Protocol: (§1) The ability of compounds to inhibit kinases was measured using ADP-Glo^Tm assay kits (Promega, Madison, WI, United States of America) or externally using radioisotope based assays (Reaction Biology Corporation, Malvern, PA, United States of America and Eurofins discovery services, France). The ADP-Glo assay was performed as reported previously (Basnet SK et al., Mol Pharmacol 88(5):935-948, 2015).The assay plate was read for luminescence using Envision multi-label plate reader (PerkinElmer, Waltham, MA, United States of America). Half-maximal inhibition (IC50) values were determined from a plot of percent residual activity versus concentration of test compounds using GraphPad Prism software. Ki values were calculated from IC50 values using the Cheng-Prusoff equation: Ki= IC50/ [1 + ([ATP]/Km ATP)], where [ATP] is the ATP concentration used for the IC50 determination and Km ATP for each kinase is determined from an individual experiment.

Aurora B kinase = molecular target: T2, Aurora B kinase (Homo sapiens, UniProt Q96GD4); test: Kinase assay; type: biochemical; conditions: kinase inhibition profiling (FIG. 2), concentration of 10 µM
T2 construct: purchased Promega (ADP-Glo kits) or Reaction Biology Corporation / Eurofins discovery services (external)
T2 sequence (Q96GD4 whole entry): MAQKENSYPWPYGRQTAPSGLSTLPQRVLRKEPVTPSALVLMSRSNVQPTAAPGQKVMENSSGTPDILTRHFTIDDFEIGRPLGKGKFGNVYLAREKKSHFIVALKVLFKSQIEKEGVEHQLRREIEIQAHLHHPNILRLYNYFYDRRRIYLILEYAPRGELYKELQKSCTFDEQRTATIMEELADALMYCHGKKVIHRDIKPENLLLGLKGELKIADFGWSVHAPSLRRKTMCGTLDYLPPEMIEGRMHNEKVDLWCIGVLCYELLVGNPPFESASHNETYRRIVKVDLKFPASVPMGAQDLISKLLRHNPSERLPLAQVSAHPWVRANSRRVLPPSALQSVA
Protocol: as §1

FLT3 = molecular target: T3, FLT3 (Homo sapiens, UniProt P36888); test: Kinase assay; type: biochemical; conditions: kinase inhibition profiling (FIG. 2), concentration of 10 µM
T3 construct: purchased Promega (ADP-Glo kits) or Reaction Biology Corporation / Eurofins discovery services (external)
T3 sequence (P36888 27-993): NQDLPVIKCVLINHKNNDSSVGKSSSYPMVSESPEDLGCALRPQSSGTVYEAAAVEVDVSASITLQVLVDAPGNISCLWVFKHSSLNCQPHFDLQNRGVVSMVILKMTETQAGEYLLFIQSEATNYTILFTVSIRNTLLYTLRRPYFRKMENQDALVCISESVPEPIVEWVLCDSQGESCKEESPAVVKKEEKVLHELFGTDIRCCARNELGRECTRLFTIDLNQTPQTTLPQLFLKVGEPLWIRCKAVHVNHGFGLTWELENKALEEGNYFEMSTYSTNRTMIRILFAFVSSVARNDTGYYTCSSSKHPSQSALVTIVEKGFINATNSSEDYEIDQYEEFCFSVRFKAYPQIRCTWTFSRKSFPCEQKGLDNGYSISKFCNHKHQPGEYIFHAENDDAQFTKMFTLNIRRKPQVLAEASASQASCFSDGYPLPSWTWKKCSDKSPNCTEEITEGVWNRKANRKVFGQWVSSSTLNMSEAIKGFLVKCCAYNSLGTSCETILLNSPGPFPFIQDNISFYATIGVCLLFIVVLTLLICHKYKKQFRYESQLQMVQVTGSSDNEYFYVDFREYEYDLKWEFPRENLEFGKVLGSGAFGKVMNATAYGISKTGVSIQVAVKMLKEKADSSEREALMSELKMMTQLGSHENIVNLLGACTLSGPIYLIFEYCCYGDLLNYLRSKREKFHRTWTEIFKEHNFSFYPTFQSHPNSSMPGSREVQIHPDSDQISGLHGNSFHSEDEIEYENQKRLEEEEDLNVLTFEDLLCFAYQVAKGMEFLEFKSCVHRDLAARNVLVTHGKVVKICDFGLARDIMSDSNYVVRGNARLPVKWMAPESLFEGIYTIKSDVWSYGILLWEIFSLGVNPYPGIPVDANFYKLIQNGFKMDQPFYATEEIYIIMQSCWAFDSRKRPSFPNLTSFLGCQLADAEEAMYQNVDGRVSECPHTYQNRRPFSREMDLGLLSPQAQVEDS
Protocol: as §1

JAK1 = molecular target: T4, JAK1 (Homo sapiens, UniProt P23458); test: Kinase assay; type: biochemical; conditions: kinase inhibition profiling (FIG. 2), concentration of 10 µM
T4 construct: purchased Promega (ADP-Glo kits) or Reaction Biology Corporation / Eurofins discovery services (external)
T4 sequence (P23458 whole entry): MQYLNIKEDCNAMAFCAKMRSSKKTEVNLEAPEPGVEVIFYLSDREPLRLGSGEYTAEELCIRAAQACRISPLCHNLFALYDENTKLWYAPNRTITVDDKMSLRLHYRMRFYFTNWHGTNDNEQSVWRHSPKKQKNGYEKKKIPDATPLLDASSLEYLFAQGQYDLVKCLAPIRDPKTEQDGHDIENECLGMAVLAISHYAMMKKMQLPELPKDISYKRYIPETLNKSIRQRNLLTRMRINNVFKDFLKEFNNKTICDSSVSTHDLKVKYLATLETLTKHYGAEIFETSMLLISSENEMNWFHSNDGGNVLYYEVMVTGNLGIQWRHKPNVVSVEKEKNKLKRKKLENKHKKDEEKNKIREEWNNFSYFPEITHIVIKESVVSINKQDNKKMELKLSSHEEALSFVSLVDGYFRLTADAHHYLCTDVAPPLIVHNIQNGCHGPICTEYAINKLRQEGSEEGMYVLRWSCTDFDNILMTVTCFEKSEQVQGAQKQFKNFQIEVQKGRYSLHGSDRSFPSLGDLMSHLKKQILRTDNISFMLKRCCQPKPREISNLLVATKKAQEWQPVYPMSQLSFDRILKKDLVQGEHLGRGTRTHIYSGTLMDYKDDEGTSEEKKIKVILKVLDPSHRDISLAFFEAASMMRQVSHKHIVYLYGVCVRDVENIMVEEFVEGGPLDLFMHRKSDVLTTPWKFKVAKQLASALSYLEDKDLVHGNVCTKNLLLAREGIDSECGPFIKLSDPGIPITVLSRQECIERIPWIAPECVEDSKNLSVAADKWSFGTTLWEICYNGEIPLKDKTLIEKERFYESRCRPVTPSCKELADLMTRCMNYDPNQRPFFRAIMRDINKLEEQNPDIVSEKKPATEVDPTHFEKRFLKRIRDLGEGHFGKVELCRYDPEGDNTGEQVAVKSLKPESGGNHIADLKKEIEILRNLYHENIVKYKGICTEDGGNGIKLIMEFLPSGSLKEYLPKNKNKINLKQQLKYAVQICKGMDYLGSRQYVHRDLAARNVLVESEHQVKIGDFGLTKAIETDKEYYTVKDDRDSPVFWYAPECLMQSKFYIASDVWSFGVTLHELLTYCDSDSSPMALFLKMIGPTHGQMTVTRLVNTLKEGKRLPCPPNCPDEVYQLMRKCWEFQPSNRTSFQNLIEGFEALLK
Protocol: as §1

LYN = molecular target: T5, LYN (Homo sapiens, UniProt P07948); test: Kinase assay; type: biochemical; conditions: expanded panel, read-out: percent inhibition
T5 construct: purchased Promega (ADP-Glo kits) or Reaction Biology Corporation / Eurofins discovery services (external)
T5 sequence (P07948 whole entry): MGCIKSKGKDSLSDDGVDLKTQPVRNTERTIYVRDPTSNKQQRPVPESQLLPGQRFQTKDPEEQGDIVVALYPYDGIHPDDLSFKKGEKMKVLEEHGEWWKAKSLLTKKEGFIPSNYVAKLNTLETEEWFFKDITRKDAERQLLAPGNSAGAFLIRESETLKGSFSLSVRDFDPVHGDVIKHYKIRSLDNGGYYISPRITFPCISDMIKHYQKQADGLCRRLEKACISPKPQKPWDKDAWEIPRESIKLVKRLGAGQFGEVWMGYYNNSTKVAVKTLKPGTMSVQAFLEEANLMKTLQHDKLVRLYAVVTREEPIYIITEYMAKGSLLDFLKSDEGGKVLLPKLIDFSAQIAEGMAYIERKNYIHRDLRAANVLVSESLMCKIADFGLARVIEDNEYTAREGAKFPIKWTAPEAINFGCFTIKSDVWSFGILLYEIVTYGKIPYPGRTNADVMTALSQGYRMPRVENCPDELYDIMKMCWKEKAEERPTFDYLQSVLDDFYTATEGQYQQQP
Protocol: as §1

PIM1 = molecular target: T6, PIM1 (Homo sapiens, UniProt P11309); test: Kinase assay; type: biochemical
T6 construct: purchased Promega (ADP-Glo kits) or Reaction Biology Corporation / Eurofins discovery services (external)
T6 sequence (P11309 whole entry): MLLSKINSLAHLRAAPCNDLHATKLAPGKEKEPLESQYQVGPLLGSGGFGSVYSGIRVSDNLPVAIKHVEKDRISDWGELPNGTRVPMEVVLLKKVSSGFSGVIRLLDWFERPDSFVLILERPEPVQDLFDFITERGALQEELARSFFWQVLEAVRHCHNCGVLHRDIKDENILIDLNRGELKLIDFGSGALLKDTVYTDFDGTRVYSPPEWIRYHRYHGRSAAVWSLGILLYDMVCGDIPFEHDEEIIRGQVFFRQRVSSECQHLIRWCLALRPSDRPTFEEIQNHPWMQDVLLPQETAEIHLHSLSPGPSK
Protocol: as §1

YES kinase = molecular target: T7, YES kinase (Homo sapiens, UniProt P07947); test: Kinase assay; type: biochemical; conditions: expanded panel, read-out: percent inhibition
T7 construct: purchased Promega (ADP-Glo kits) or Reaction Biology Corporation / Eurofins discovery services (external)
T7 sequence (P07947 whole entry): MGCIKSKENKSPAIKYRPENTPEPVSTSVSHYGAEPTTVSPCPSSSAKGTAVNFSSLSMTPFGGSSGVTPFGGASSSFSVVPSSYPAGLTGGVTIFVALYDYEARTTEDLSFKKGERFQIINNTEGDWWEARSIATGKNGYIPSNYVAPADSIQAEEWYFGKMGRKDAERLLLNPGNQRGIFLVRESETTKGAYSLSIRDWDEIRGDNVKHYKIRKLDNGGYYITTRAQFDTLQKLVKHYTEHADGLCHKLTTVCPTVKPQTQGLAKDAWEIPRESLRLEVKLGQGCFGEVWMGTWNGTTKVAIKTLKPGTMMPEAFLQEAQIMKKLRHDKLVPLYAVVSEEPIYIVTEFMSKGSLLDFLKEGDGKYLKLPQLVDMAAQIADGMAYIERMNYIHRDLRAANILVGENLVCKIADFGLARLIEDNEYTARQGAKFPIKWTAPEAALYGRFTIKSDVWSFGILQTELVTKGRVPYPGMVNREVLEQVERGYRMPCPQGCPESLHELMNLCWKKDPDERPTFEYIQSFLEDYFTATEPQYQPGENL
Protocol: as §1

[1] = system: expanded panel of 429 different kinases; test: Kinase profiling, expanded panel; type: biochemical; conditions: 1 µM
Protocol: as §1
In a subsequent kinase profiling experiment, using an expanded panel of 429 different kinases, the inhibitory activity of Rilpivirine was confirmed using a reduced concentration of 1 µM. […] The percent inhibition against Aurora A, PIM1, LYN and YES kinases were 86, 78, 77 and 83% respectively at the concentration of 1 µM of Rilpivirine. The other 424 kinases were inhibited by less than 70 % at this concentration.

Jurkat cells = test: Cell cycle analysis (flow cytometry); type: cell-based; conditions: various concentrations, 24 hour
Protocol: (§2) The effect of Rilpivirine on cell cycle distribution in different cancer cell lines was evaluated by flow cytometric analysis. Briefly, cells were seeded in 6-well plates at a density of 6 × 10^4 cells/well. All plates were incubated overnight at 37° C. in a 5% CO2 incubator. Following the incubation, the test compounds (Rilpivirine (Ril) and comparators, Alisertib (Ali; a known Aurora A inhibitor) and Etravirine (Etra; 4-[[6-amino-5-bromo-2-[(4-cyanophenyl)amino]-4-pyrimidinyl]oxy]-3,5-dimethylbenzonitrile - a structurally similar NNRTI drug compound sold under the brand name Intelence® (Janssen Therapeutics)) were added to individual wells and the plates were incubated at same condition for 24 h, 48 h or 72 h. Subsequently, the medium was removed from the wells and transferred into fluorescence-activated cell sorting (FACS) tubes. The adherent cells remaining were trypsinised, re-suspended in media and transferred into the FACS tubes. Cells were centrifuged, fixed with cold 70% ethanol for 15 min and pelleted. The pelleted cells were then re-suspended in 200 µL propidium iodide (PI) solution (50 µg/mL propidium iodide, 0.1 mg/mL ribonuclease A, 0.1% sodium citrate, 0.1% triton X-100) and incubated in the dark for 1.5 h at room temperature. Following the incubation, 200 µL PBS was added. Samples were assessed using a flow cytometer (Cytoflex; Beckman Coulter Inc, Brea, CA, United States of America) and data were analysed using the Cytexpert software.

K-562 cells = test: Cell cycle analysis (flow cytometry); type: cell-based; conditions: various concentrations, 24 hour
Protocol: as §2

OVCAR-5 cells = test: Cell cycle analysis (flow cytometry); type: cell-based; conditions: 72 hour, 5 µM, 10 µM and 20 µM; p53 WT
Protocol: as §2

[2] = system: cleavage of PARP in p53 WT A2780 cells; test: Western blot, PARP cleavage; type: cell-based; conditions: 48 hour treatments, various concentrations
Protocol: For Western blotting, cells (8×10^5) were seeded in a culture dish with 10 mL medium and incubated overnight at 37° C., 5% CO2. Untreated and compound-treated cells were lysed using phosphate lysis buffer and protease inhibitors. The protein concentration of each sample was determined by Bio-Rad DC™ protein assay (Bio-Rad Laboratories, Hercules, CA, United States of America). The protein was deactivated at 95° C. for 5 min and then resolved on 4-20% polyacrylamide gels by electrophoresis. Proteins were transferred to polyvinylidene difluoride (PDVF) membrane and blocked for 1 h with 10% skimmed milk (SM) in Tris-buffered saline and Tween (TBST). After adding primary antibody, the membranes were incubated overnight on a rocker in a 4° C. cold room. The following day, membranes were washed in TBST (4×20 min), incubated for at least 1 h at room temperature with the appropriate horseradish peroxidase conjugated secondary antibody. Following this, the blots were washed with TBST (4×20 min) again. The blots were then treated with Western blotting detection reagent and the band intensity was determined using a Bio-Rad ChemiDoc™ MP imaging system (Bio-Rad Laboratories). All the antibodies used for protein detection were from Cell Signaling Technology (Danvers, MA, United States of America). […]

[3] = 1 µM, expanded panel, read-out: percent inhibition
[4] = kinase inhibition profiling (FIG. 2), concentration of 10 µM

inhibition at 1 µM (Aurora A kinase; [3]): 86%
Ki (Aurora A kinase; cell free kinase assay): 130 nM
inhibitory activity against Aurora A (Aurora A kinase; [4]): potently inhibits
inhibitory activity against Aurora B (Aurora B kinase): some inhibitory activity
inhibitory activity against FLT3 (FLT3): some inhibitory activity
inhibitory activity against JAK1 (JAK1): some inhibitory activity
inhibition at 1 µM (LYN): 77%
inhibition at 1 µM (PIM1; [3]): 78%
inhibitory activity against PIM1 (PIM1; [4]): some inhibitory activity
inhibition at 1 µM (YES kinase): 83%
percent inhibition of the other 424 kinases [1]: less than 70%
kinase selectivity ([1]; panel of 429 kinases): selective inhibitor of Aurora A
SMILES: Cc1cc(/C=C/C#N)cc(C)c1Nc1ccnc(Nc2ccc(C#N)cc2)n1 [Rilpivirine, 4-[[4-[4-[(E)-2-cyanoethenyl]-2,6-dimethylanilino]pyrimidin-2-yl]amino]benzonitrile]
cell cycle arrest (Jurkat cells): arrests NB4 and Jurkat cells in the G2/M phase in a dose-dependent manner
cell cycle arrest (K-562 cells): arrests both of these cell lines in the G2/M phase in a dose-dependent manner
cell cycle arrest (OVCAR-5 cells): arrests the cells in the G1 phase or accumulated in Sub-G1 phase at higher concentrations
cleavage of PARP [2]: apoptosis is associated with cleavage of PARP
